Source: patent US10441681B2, “Materials and methods for nerve grafting” (University of Florida Research Foundation, Inc., priority 2001, dated 2019)
“Also recorded” adds a separate entry of the source.

Legend:
[1] = system: MMP; assay: In situ zymography of nerve explants (net gelatinolytic activity); type: biochemical, rat; conditions: nerves cultured 2-day, 2% serum in the presence of GM6001
Method: In the control condition, the MMP inhibitor EDTA (30 mM) was included in the reaction buffer. After incubation for 24 h at 37° C., the sections were rinsed with PBS and fixed with 4% paraformaldehyde in phosphate buffer. The sections were rinsed with water and mounted using Citifluor.

[2] = system: embryonic chick DRG neurons; assay: Cryoculture assay of nerve explant cultures (predegeneration); type: cell-based; conditions: nerves cultured 2 days, 2% serum, in the presence of GM6001 (50 μM)
[3] = system: Schwann cell cultures; assay: Treatment of isolated Schwann cell cultures (toxicity); type: cell-based

## CNC(=O)[C@H](Cc1c[nH]c2ccccc12)NC(=O)[C@@H](CC(=O)NO)CC(C)C [GM6001]
[1]
  gelatinolytic activity in nerve explants: nearly undetectable; also recorded: markedly decreased
[2]
  increase in mean neurite length over uncultured control nerves: 14%
[3]
  toxicity: very low toxicity
